Patent US20090209522A1, “Heterocyclic Non-Peptide GNRH Antagonists” (priority 2005, published 2009)

Columns and labels:
human GnRH receptors = molecular target: T1, human GnRH receptors (Homo sapiens, UniProt P30968); assay: Human GnRH receptor functional assay (intracellular calcium release); type: cell-based; conditions: CHO-K1 cells expressing human GnRH receptors; block of GnRH (EC80)-induced intracellular calcium release; 20 minutes pre-incubation
T1 construct: expressed in transfected cells; host or cells: CHO-K1
T1 sequence (P30968 1-328): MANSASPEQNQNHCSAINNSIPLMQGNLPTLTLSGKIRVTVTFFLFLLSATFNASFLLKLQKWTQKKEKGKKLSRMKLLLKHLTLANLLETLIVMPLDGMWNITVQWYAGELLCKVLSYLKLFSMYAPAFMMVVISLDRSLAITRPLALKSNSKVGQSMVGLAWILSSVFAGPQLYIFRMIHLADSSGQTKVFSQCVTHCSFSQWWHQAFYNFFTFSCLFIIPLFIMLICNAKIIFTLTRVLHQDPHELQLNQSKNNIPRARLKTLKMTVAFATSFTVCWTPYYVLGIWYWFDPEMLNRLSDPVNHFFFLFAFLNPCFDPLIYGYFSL
Method: Human GnRH Receptor Functional Assay
GnRH-receptor antagonists may be functionally assessed by measurement of change in intracellular calcium levels induced by Gαq mediated increase in IP3 levels. The ability of compounds to block the intracellular release of calcium by GnRH in CHO-K1 cells expressing human GnRH receptors is determined as a measure of the compound's antagonist activity in vitro. Approximately 30,000 cells per assay well (half well 96 well assay plate—Corning) are seeded in normal culture medium. Twenty four hours after seeding the cells are loaded with a calcium sensitive fluorescent dye by replacing the culture medium with assay buffer (1× Hanks buffered saline, 25 mM HEPES, 0.1% w/v fatty acid free BSA, pH7.4) containing 2.5 mM probenecid and 1× Calcium Plus reagent (Molecular) Devices. Cells are incubated at 37° C. for 1 hour to allow for dye uptake. To test for antagonist activity, compounds at a concentration range between 0.1 nM-3.2 μM are added to the assay wells and allowed to incubate 20 minutes prior to stimulation with GnRH. After incubation with test compounds the assay plate is placed in a Flexstation II (Molecular Devices) and GnRH is added at the determined EC80 concentration (final). Ligand-dependent changes in intracellular calcium levels are determined by measuring changes in fluorescence of the dye at […] following excitation at 485 nm. Percentage inhibition curves are plotted using 4-parameter fit algorithm and IC50 values calculated for each compound.

melting point [°C] | IC50 (human GnRH receptors) [nM] | Structure (SMILES)
85 |  | COc1nc(NCCCN2CCOCC2)nc(OC)c1NC(=O)c1coc(Oc2cccc(C(C)(C)C)c2)n1 [Example 1, 2-(3-tert-butylphenoxy)-N-(4,6-dimethoxy-2-(3-morpholinopropylamino)pyrimidin-5-yl)oxazole-4-carboxamide]
68 | 485 | COc1nc(NCCCN2CCOCC2)nc(OC)c1NC(=O)c1csc(Oc2cccc(C(C)(C)C)c2)n1 [Example 2, 2-(3-tert-butylphenoxy)-N-(4,6-dimethoxy-2-(3-morpholinopropylamino)pyrimidin-5-yl)thiazole-4-carboxamide]
 | 193 | COc1nc(NCCN(C)C)nc(OC)c1NC(=O)c1csc(Oc2cc(C(C)(C)C)ccc2C)n1 [Example 5, 2-(5-tert-Butyl-2-methylhenoxy)-N-(2-(2-(dimethylamino)ethylamino)-4,6-dimethoxypyrimidin-5-yl)thiazole-4-carboxamide]
 | 4 | COc1cc2c(cc1Oc1nc(C(=O)Nc3c(OC)nc(NCCNC(C)C)nc3OC)cs1)C(C)(C)CC2 [Example 24, N-(2-(2-(Isopropylamino)ethylamino)-4,6-dimethoxypyrimidin-5-yl)-2-(6-methoxy-3,3-dimethyl-2,3-dihydro-1H-inden-5-yloxy)thiazole-4-carboxamide]
